Where two headings read alike, the source gives them in different places.
Experiments:
[1] = system: eEPC adhesion to MCEC-1 cells; test: eEPC adhesion to MCEC-1 cells under static conditions; assay type: cell-based, mouse
A1 receptors [2] = target: T1, A1 receptors (Mus musculus, UniProt Q60612); test: Inhibition of forskolin-stimulated cAMP accumulation in mouse eEPCs; settings: for Affinity or potency at A1, mouse (m), current study, log / Affinity or potency (Ki, KD, KB, IC50 or EC50) at A1, mouse (m), current study: data from the current study (no reference); for Affinity or potency (Ki, KD, KB, IC50 or EC50) at A1, mouse (m), current study: 95% CI in parentheses
T1 sequence (Q60612 1-326): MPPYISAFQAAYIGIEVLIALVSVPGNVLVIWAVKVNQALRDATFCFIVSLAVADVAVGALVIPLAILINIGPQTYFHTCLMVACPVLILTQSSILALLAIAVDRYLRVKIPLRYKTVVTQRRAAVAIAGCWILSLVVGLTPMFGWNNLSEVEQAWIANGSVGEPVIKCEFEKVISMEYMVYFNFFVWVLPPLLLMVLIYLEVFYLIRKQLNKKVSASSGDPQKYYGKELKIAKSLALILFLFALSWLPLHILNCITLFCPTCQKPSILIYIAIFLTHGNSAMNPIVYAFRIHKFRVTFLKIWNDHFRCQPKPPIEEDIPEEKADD

A1 adenosine receptor [3] = target: T2, A1 adenosine receptor (Mus musculus, UniProt Q60612); settings: cited from earlier work; for Ki: read-out: Affinity or potency at A1, mouse (m)
T2 sequence (Q60612 1-326): T1 sequence (Q60612 1-326)

A2A adenosine receptor [4] = target: A2A adenosine receptor (Mus musculus, UniProt Q60613); settings: [9] Kreckler et al. (2006), transfected HEK 293, radioligand [125I]ZM241385, cited from earlier work
A2B adenosine receptor [5] = target: T3, A2B adenosine receptor (Mus musculus, UniProt Q60614); settings: [9] Kreckler et al. (2006), transfected HEK 293, radioligand [3H]MRS1754, cited from earlier work
T3 sequence (Q60614 1-332): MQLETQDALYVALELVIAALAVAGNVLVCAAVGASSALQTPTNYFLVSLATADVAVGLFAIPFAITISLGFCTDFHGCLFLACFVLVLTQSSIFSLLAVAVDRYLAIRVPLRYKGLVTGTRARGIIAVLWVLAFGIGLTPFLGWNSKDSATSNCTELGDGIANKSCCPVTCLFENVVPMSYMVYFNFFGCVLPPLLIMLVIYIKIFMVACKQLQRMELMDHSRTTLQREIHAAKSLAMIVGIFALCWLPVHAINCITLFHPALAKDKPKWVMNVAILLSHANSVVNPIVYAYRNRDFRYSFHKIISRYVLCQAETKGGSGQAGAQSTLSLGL

A1 receptors [6] = target: T1, A1 receptors; test: Inhibition of forskolin-induced cAMP accumulation in MCEC-1 cells
[7] = system: eEPC retention in isolated hearts; test: eEPC retention in isolated mouse hearts (Langendorff perfusion)
Protocol: Isolated mouse heart model. Six male C57Bl/6 mice (Jackson Laboratory, Bar Harbor, Me.) at age of 6-8 weeks were used. The study was conducted in accordance with the Guide for the Care and Use of Laboratory Animals as adopted and promulgated by the U.S. National Institutes of Health. Hearts were rapidly removed from mice anesthetized with inhalation of isoflurane. The aorta was cannulated and connected to a Langendorff apparatus. […] After a 30 min stabilization period, hearts were perfused with 1.5 mmol/L FITC-conjugated Helix pomatia lectin (Sigma) for 10 min to label endothelial cells of perfused vessels followed by a 10 min washing period with KH buffer. […] After washing with KH buffer for 10 min to remove unbound eEPCs, hearts were dissected, and placed on a microscopic stage. Retention of eEPCs in hearts was analyzed by taking 10 random images of the left ventricle using epifluorescence microscopy (20× objective). Area of EPC-emitted fluorescence was measured using NIH ImageJ software and normalized to the area of vascular endothelium stained with FITC-lectin.

eEPCs = test: cAMP accumulation in mouse eEPCs (forskolin, NECA)
A2A adenosine receptor [8] = target: A2A adenosine receptor (Homo sapiens, UniProt P29274); settings: [14] Feoktistov et al, 2001, transfected CHO cells, radioligand [3H]NECA, cited from earlier work
A1 adenosine receptor [9] = target: T4, A1 adenosine receptor (Homo sapiens, UniProt P30542); settings: [14] Feoktistov et al, 2001, transfected CHO cells, radioligand [3H]DPCPX, cited from earlier work
T4 sequence (P30542 1-326): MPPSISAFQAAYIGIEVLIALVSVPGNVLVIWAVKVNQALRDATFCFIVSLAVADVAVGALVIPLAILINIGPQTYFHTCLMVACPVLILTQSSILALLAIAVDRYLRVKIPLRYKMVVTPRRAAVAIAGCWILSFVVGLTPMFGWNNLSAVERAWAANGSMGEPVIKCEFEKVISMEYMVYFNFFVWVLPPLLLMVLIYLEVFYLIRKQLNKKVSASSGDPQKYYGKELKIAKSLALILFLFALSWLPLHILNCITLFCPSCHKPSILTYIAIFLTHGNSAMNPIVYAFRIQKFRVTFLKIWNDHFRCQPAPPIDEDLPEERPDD

A2B receptors = target: T5, A2B receptors (Mus musculus, UniProt Q60614); test: NECA-stimulated cAMP accumulation in MCEC-1 cells
T5 sequence (Q60614 1-332): T3 sequence (Q60614 1-332)

A2B adenosine receptor [10] = target: T6, A2B adenosine receptor (Homo sapiens, UniProt P29275); settings: [14] Feoktistov et al, 2001, transfected HEK 293 or HEL cells, radioligand [3H]ZM241685, cited from earlier work
T6 sequence (P29275 1-332): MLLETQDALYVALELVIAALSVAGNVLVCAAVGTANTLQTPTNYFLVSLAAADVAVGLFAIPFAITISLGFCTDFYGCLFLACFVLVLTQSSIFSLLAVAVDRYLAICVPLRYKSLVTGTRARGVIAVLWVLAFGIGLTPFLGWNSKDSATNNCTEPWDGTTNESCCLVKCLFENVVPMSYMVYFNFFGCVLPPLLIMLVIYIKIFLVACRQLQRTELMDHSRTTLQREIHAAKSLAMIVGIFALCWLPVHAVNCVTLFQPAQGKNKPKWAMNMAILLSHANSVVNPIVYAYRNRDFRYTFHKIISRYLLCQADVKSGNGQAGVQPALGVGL

HMVEC-c cells = test: cAMP accumulation in HMVEC-c cells; assay type: cell-based, human
Text: Primary cultures of human cardiac microvascular endothelial cells (HMVEC-c) were obtained from Cambrex (Walkersville, Md.), and cultured using EGM™-2 MV growth medium (Cambrex). HMVEC-c from passages 2 to 5 were used. Measurement of cAMP accumulation.

[11] = [6] Maemoto et al. (1997), brain cortex, radioligand [3H]DPCPX
[12] = [9] Kreckler et al. (2006), transfected HEK 293, radioligand [125I]I-AB-MECA

Sequence of A2A adenosine receptor (Homo sapiens, UniProt P29274) (P29274 whole entry): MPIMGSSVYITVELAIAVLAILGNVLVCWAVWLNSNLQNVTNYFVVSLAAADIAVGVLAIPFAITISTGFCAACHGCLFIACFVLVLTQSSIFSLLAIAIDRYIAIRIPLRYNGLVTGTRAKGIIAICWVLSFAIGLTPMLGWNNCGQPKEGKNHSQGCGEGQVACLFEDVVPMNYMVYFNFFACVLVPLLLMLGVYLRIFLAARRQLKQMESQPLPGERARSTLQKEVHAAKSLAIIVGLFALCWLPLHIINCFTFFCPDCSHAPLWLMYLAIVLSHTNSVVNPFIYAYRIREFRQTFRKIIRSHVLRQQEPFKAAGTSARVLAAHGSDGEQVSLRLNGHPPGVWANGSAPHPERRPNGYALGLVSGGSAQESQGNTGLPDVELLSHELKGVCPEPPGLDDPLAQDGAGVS
Sequence of A2A adenosine receptor (Mus musculus, UniProt Q60613) (Q60613 whole entry): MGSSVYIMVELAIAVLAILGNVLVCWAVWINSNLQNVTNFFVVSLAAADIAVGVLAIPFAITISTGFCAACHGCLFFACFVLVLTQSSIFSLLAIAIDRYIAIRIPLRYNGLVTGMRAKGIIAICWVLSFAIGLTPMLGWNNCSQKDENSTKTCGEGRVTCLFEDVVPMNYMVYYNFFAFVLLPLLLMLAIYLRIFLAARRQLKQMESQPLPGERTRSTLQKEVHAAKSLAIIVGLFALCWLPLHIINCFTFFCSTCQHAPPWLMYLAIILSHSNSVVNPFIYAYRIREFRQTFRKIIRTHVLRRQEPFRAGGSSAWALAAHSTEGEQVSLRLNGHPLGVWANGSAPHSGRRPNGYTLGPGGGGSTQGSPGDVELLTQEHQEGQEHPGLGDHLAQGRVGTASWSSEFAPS

Pertussis toxin
Effect on TNF-α-induced eEPC adhesion ([1]; eEPCs preincubated with pertussis toxin 12 hours): no effect | Effect on stimulation of adhesion induced by NECA ([1]; eEPCs preincubated with pertussis toxin 12 hours, 10 μmol/L NECA): significantly attenuated but did not completely block | Effect on ability of CPA to inhibit forskolin-stimulated adenylate cyclase (A1 receptors [2]; eEPCs preincubated with pertussis toxin for 12 hours): completely abrogated

CCCn1c(=O)c2[nH]c(C3CCCC3)nc2n(CCC)c1=O [DPCPX, 8-cyclopentyl-1,3-dipropylxanthine]
Affinity or potency at A1, mouse (m), log (A1 adenosine receptor [3]; [11]): −9.3 log mol/L | Affinity or potency at A1, mouse (m), log (A1 adenosine receptor [3]; [12]): −8.8 log mol/L | Ki (A1 adenosine receptor [3]; [11]): 0.0004 µM | Ki (A1 adenosine receptor [3]; [12]): 0.0015 µM | Affinity or potency at A2A, mouse (m), log (A2A adenosine receptor [4]): −6.2 log mol/L | Ki (A2A adenosine receptor [4]; read-out: Affinity or potency at A2A, mouse (m)): 0.598 µM | EC50 (A1 receptors [2]): 0.0015 µM | Affinity or potency at A1, mouse (m), current study, log (A1 receptors [2]): −8.8 log mol/L | Affinity or potency at A2B, mouse (m), log (A2B adenosine receptor [5]): −7.1 log mol/L | Ki (A2B adenosine receptor [5]; read-out: Affinity or potency at A2B, mouse (m)): 0.086 µM

OC[C@H]1O[C@@H](n2cnc3c(NC4CCCC4)ncnc32)[C@H](O)[C@@H]1O [CPA, N^6-cyclopentyladenosine]
Affinity or potency at A1, mouse (m), log (A1 adenosine receptor [3]; [11]): −8.5 log mol/L | Ki (A1 adenosine receptor [3]; [11]): 0.0033 µM | eEPC adhesion ([1]; 10 nmol/L, 30 minutes, basal 4.5±0.3%): 7.4±0.6% | EC50 (A1 receptors [2]): 0.0013 µM | Affinity or potency at A1, mouse (m), current study, log (A1 receptors [2]): −8.9 log mol/L | Affinity or potency (Ki, KD, KB, IC50 or EC50) at A1, mouse (m), current study (A1 receptors [2]): 1.2 (0.6-2.4) nmol/L | Concentrations at which inhibition was reversed (A1 receptors [6]; MCEC-1, presumably stimulation of A2B receptors): > 100 nmol/L | Effect on forskolin-stimulated adenylate cyclase in MCEC-1 (A1 receptors [6]; selective (low nanomolar) concentrations, 1 μmol/L forskolin): inhibited forskolin-stimulated adenylate cyclase

OC[C@H]1O[C@@H](n2cnc3c(O)ncnc32)[C@H](O)[C@@H]1O [inosine]
Effect on eEPC retention ([7]; 100 μmol/L): no effect

C=C[C@@]1(C)CC(=O)[C@]2(O)[C@@]3(C)[C@@H](O)CCC(C)(C)[C@@H]3[C@H](O)[C@H](OC(C)=O)[C@@]2(C)O1 [Forskolin, forskolin]
EC50 (eEPCs; Mus musculus, read-out: EC50, increase of cAMP levels in eEPCs): 1.1 µM | cAMP levels in eEPCs (eEPCs; maximal increase from basal 4.3±0.7): 35±2 pmol per well

CC(C)Cn1c(=O)[nH]c(=O)c2[nH]c(N3CCCC3)nc21 [IPDX, 3-isobutyl-8-pyrrolidinoxanthine]
IC50 ([1]; Mus musculus, read-out: IC50, inhibition of NECA-induced eEPC adhesion): 1.6 µM | Affinity or potency at A1, mouse (m), current study, log (A1 receptors [2]): 24,870); −4.6 log mol/L | Affinity or potency (Ki, KD, KB, IC50 or EC50) at A1, mouse (m), current study (A1 receptors [2]): m 20,000 (16,230- nmol/L | Affinity or potency at A2A, human (h), log (A2A adenosine receptor [8]): −4.4 log mol/L | Ki (A2A adenosine receptor [8]; read-out: Affinity or potency at A2A, human (h)): 36 µM | Affinity or potency at A1, human (h), log (A1 adenosine receptor [9]): −4.6 log mol/L | Ki (A1 adenosine receptor [9]; read-out: Affinity or potency at A1, human (h)): 24 µM | Kd (A2B receptors): 0.603 µM | Schild analysis slope (A2B receptors; NECA-induced cAMP accumulation in MCEC-1, simple competitive antagonism at A2B): 1.1 | Affinity or potency at A2B, mouse (m), current study, log (A2B receptors; data from the current study (no reference)): −6.2 log mol/L | Affinity or potency (Ki, KD, KB, IC50 or EC50) at A2B, mouse (m), current study (A2B receptors; data from the current study (no reference), 95% CI in parentheses): 0.603 µM | Affinity or potency at A2B, human (h), log (A2B adenosine receptor [10]): −6.2 log mol/L | Ki (A2B adenosine receptor [10]; read-out: Affinity or potency at A2B, human (h)): 0.625 µM

Fucoidan
Effect on NECA-dependent stimulation of eEPC adhesion ([1]; 10 μmol/L NECA): inhibited

CCNC(=O)[C@H]1O[C@@H](n2cnc3c(N)nc(NCCc4ccc(CCC(=O)O)cc4)nc32)[C@H](O)[C@@H]1O [CGS21680, 4-((N-ethyl-5′-carbamoyladenos-2-yl)-aminoethyl)-phenyl-propionic acid]
Affinity or potency at A1, mouse (m), log (A1 adenosine receptor [3]; [11]): 28,200); −4.85 [6] log mol/L | Effect on eEPC adhesion ([1]; 30 minutes): virtually no effect | Effect on cAMP accumulation in HMVEC-c (HMVEC-c cells): no significant effect | Effect on eEPC retention ([7]; 3 nmol/L, compared with 10 μmol/L adenosine): considerably less effect

— patent US20090136460A1 (VANDERBILT UNIVERSITY, priority 2007, published 2009)
